Data on one substance can be found in patent US5208320A, “Polypeptide having c-AMP-producing activity” (Takeda Chemical Industries, Ltd., priority 1990, dated 1993).

The subject of one test is PC12h cells. Description: c-AMP-producing activity: c-AMP secreted by PC12h cells, radioimmunoassay kit. It counts as cell-based, rat. The note with it: sample added, 37° C. for 2 hours, c-AMP in culture solution, FIG. 1. The procedure:
In the present invention, c-AMP producing activity was assayed by determining the amount of c-AMP secreted out of cells with a radioimmunoassay kit for measuring c-AMP, using subcultured cell PC12h of rat adrenal medulla origin.
Established cells derived from adrenal medullas, PC12h, were cultivated in Dulbecco's modified Eagle's medium containing 10% semi-fetal calf serum at 37° C. A 48-well collagen-treated plate was inoculated with 5×10^4 cells per well, and cultivation was conducted for 7 to 10 days. Then, the culture medium was exchanged for 500 μl of Hank's balanced salt solution, followed by standing at 37° C. for 30 minutes. A sample to be tested dissolved in the same solution was added thereto, and cultivation was conducted at 37° C. for 2 hours. Subsequently, the amount of c-AMP in this culture solution was assayed by using a kit for measuring c-AMP (Amersham Inc.).

In test [1] the test system is neuronal cell death induced by the gp120 envelope glycoprotein of the AIDS virus. As to conditions: known property of VIP; cited from earlier work.
For test [2] the following is noted: background art; cited from earlier work.

Ends that are not written are not given here.

On to “vasoactive intestinal peptide (HSDAVFTDNYTRLRKQMAVKKYLNSILN; ends and bridges not checked; UniProt P01282 125-152, looked up) [VIP, 68% homology with PACAP-27-NH2]”, for which the c-AMP-producing activity result in the test with PC12h cells is reported as “weak”; in test [2], “very weak”. For the same substance, the “protection of neurons from cell death induced by gp120” value in test [1] is listed as “capable of protecting neurons from cell death”.
